Source: patent EP4722207A1, “OXOISOINDOLINYL-SUBSTITUTED TETRAHYDROPYRIMIDINEDIONE DERIVATIVE AND USE THEREOF” (Gluetacs Therapeutics (Shanghai) Co., Ltd., priority 2023, dated 2024)

Assays:
Type in all cases: cell-based
Details in all cases: compounds at 50 nM and 500 nM, 24 hours
IKZF2 = biological target: T1, IKZF2 (Homo sapiens, UniProt Q96SW2+Q9UKS7); experiment: Western-blot assay, substrate protein degradation in hPBMCs: IKZF2
T1 construct: effects of the compounds of the present disclosure on the expression of target proteins in cells; endogenous in cells; host or cells: human PBMCs (hPBMCs)
T1 sequence (Q9UKS7 whole entry): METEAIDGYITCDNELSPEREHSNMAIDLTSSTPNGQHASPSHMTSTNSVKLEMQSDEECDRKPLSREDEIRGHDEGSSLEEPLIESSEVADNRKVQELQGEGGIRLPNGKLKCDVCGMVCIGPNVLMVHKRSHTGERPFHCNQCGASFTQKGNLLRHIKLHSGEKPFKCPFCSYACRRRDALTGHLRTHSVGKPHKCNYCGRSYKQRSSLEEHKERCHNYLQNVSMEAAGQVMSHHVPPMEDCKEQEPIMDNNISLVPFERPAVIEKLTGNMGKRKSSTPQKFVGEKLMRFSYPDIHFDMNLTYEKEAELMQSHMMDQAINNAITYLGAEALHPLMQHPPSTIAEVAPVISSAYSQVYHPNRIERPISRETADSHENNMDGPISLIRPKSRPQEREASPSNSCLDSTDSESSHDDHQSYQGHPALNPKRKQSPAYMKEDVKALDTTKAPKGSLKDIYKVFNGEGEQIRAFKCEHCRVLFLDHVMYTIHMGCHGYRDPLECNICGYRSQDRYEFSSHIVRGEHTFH
T1 sequence (Q96SW2 whole entry): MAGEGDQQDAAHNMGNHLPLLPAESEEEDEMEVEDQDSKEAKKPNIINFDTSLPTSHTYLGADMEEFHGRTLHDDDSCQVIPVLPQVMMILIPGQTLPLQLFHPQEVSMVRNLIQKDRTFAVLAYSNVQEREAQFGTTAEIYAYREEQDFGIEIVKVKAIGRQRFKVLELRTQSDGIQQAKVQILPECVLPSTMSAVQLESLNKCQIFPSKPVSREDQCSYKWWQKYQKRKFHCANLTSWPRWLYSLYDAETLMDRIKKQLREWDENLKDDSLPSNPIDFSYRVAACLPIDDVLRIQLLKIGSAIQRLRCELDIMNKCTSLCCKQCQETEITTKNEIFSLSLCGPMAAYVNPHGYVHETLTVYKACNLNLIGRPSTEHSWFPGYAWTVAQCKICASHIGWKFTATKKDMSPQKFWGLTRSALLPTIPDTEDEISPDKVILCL
T1 sequence (Q16531 whole entry partner): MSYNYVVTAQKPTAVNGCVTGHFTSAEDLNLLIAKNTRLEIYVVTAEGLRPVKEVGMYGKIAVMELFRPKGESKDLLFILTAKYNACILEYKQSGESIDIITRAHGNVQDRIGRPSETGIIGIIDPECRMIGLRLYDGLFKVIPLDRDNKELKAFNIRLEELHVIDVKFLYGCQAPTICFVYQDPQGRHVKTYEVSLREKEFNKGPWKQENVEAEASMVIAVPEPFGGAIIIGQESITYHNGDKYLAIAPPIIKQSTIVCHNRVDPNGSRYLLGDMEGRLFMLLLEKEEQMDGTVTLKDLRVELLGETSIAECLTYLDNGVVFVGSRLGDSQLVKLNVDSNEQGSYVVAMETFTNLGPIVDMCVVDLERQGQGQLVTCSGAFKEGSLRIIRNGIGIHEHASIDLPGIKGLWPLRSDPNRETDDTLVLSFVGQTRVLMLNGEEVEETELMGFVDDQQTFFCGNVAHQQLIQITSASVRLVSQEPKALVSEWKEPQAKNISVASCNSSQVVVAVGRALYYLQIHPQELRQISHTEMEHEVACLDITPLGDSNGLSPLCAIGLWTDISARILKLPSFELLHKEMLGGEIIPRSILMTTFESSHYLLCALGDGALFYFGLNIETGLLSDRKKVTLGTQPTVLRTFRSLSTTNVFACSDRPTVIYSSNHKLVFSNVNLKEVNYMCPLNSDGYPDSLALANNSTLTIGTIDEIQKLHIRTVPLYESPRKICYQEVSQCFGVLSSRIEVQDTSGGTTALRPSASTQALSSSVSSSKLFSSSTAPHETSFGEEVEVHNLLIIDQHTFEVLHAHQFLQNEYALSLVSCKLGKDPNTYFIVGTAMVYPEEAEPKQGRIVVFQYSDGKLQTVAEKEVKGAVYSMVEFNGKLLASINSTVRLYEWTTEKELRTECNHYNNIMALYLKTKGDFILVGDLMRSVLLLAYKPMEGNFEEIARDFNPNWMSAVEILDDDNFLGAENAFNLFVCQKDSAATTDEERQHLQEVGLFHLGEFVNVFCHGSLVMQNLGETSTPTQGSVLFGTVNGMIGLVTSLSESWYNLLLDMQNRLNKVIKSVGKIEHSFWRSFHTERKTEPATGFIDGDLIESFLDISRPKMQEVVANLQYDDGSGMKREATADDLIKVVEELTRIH

GSPT1 = biological target: T2, GSPT1 (Homo sapiens, UniProt P15170+Q96SW2); experiment: Western-blot assay, substrate protein degradation in hPBMCs: GSPT1
T2 construct: effects of the compounds of the present disclosure on the expression of target proteins in cells; endogenous in cells; host or cells: human PBMCs (hPBMCs)
T2 sequence (P15170 whole entry): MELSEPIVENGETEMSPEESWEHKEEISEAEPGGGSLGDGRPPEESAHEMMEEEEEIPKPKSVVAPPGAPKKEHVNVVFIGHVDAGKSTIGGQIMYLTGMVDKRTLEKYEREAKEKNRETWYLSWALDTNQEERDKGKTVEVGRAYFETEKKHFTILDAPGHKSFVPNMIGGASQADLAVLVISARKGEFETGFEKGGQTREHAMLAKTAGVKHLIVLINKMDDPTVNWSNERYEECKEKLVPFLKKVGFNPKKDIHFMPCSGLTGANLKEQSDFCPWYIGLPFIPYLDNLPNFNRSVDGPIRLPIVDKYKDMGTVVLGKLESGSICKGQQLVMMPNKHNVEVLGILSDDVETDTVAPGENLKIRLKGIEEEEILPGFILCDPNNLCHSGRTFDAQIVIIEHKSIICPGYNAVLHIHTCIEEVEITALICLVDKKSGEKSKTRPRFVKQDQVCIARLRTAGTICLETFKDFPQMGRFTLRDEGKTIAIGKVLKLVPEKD
T2 sequence (Q96SW2 whole entry): as the sequence (Q96SW2 whole entry) above
T2 sequence (Q16531 whole entry partner): as the sequence (Q16531 whole entry partner) above

WEE1 = biological target: T3, WEE1 (Homo sapiens, UniProt P30291+Q96SW2); experiment: Western-blot assay, substrate protein degradation in hPBMCs: WEE1
T3 construct: effects of the compounds of the present disclosure on the expression of target proteins in cells; endogenous in cells; host or cells: human PBMCs (hPBMCs)
T3 sequence (P30291 whole entry): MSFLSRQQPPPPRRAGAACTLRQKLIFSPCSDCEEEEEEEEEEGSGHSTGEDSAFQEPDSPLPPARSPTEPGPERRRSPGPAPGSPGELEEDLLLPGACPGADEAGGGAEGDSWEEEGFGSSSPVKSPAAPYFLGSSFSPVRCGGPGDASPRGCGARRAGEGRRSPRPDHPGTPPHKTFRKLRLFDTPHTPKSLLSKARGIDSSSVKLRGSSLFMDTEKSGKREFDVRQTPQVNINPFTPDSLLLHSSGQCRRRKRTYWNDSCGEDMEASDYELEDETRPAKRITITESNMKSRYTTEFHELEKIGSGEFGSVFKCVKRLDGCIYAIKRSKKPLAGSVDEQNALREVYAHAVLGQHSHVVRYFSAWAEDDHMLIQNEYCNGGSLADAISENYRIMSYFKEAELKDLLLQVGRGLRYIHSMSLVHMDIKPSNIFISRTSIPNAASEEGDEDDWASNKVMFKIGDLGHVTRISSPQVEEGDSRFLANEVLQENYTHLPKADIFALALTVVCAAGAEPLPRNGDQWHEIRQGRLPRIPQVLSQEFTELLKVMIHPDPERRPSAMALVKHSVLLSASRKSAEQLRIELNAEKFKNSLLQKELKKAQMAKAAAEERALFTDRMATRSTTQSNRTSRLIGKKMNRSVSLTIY
T3 sequence (Q96SW2 whole entry): as the sequence (Q96SW2 whole entry) above
T3 sequence (Q16531 whole entry partner): as the sequence (Q16531 whole entry partner) above

CK1α = biological target: T4, CK1α (Homo sapiens, UniProt P48729+Q96SW2); experiment: Western-blot assay, substrate protein degradation in hPBMCs: CK1α
T4 construct: effects of the compounds of the present disclosure on the expression of target proteins in cells; endogenous in cells; host or cells: human PBMCs (hPBMCs)
T4 sequence (P48729 whole entry): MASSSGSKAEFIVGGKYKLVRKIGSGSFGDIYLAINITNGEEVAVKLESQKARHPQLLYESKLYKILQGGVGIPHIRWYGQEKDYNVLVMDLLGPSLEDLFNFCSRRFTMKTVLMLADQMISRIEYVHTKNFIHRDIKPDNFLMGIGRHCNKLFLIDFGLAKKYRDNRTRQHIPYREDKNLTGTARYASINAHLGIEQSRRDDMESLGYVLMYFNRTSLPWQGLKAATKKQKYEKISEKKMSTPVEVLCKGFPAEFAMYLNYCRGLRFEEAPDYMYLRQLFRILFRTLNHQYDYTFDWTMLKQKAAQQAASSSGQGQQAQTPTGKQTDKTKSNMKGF
T4 sequence (Q96SW2 whole entry): as the sequence (Q96SW2 whole entry) above
T4 sequence (Q16531 whole entry partner): as the sequence (Q16531 whole entry partner) above

IKZF1 = biological target: T5, IKZF1 (Homo sapiens, UniProt Q13422+Q96SW2); experiment: Western-blot assay, substrate protein degradation in hPBMCs: IKZF1
T5 construct: effects of the compounds of the present disclosure on the expression of target proteins in cells; endogenous in cells; host or cells: human PBMCs (hPBMCs)
T5 sequence (Q13422 whole entry): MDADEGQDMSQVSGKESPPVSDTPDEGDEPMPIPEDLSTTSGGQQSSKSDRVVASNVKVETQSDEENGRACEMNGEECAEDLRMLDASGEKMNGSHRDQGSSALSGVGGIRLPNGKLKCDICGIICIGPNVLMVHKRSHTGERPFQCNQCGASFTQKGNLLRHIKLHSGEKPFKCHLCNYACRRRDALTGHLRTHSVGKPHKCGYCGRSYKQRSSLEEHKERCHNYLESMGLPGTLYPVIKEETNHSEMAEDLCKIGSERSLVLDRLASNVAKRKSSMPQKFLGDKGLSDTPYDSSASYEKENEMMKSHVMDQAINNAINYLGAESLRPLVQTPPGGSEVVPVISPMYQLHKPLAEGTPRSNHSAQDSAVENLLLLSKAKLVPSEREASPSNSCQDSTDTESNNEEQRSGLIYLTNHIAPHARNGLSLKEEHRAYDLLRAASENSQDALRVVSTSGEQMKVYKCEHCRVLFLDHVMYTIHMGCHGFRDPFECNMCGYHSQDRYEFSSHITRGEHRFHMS
T5 sequence (Q96SW2 whole entry): as the sequence (Q96SW2 whole entry) above
T5 sequence (Q16531 whole entry partner): as the sequence (Q16531 whole entry partner) above

IKZF3 = biological target: T6, IKZF3 (Homo sapiens, UniProt Q96SW2+Q9UKT9); experiment: Western-blot assay, substrate protein degradation in hPBMCs: IKZF3
T6 construct: effects of the compounds of the present disclosure on the expression of target proteins in cells; endogenous in cells; host or cells: human PBMCs (hPBMCs)

| Compound | IKZF2 substrate protein remaining % (IKZF2) | GSPT1 substrate protein remaining % (GSPT1) | WEE1 substrate protein remaining % (WEE1) | CK1α substrate protein remaining % (CK1α) | IKZF1 substrate protein remaining % (IKZF1) | IKZF3 substrate protein remaining % (IKZF3) |
| --- | --- | --- | --- | --- | --- | --- |
| O=C1CCN(N2C(=O)c3ccc(CN4CCN(c5ccc(F)cc5)CC4)cc3C2=O)C(=O)N1 [GT-06725, 2-(2,4-dioxotetrahydropyrimidin-1(2H)-yl)-5-((4-(4-fluorophenyl)piperazin-1-yl)methyl)isoindoline-1,3-dione] | B ("B" is defined as 80%< substrate protein remaining %≤ 100%) | B ("B" is defined as 80%< substrate protein remaining %≤ 100%) | B ("B" is defined as 80%< substrate protein remaining %≤ 100%) | B ("B" is defined as 80%< substrate protein remaining %≤ 100%) | A ("A" is defined as 0% ≤ substrate protein remaining % ≤ 80%) | B ("B" is defined as 80%< substrate protein remaining %≤ 100%) |
| O=C1CCN(N2C(=O)c3ccc(CN4CCN(c5ccccc5Cl)CC4)cc3C2=O)C(=O)N1 [GT-06726, 5-((4-(2-chlorophenyl)piperazin-1-yl)methyl)-2-(2,4-dioxotetrahydropyrimidin-1(2H)-yl)isoindoline-1,3-dione] | A ("A" is defined as 0% ≤ substrate protein remaining % ≤ 80%) | B ("B" is defined as 80%< substrate protein remaining %≤ 100%) | A ("A" is defined as 0% ≤ substrate protein remaining % ≤ 80%) | A ("A" is defined as 0% ≤ substrate protein remaining % ≤ 80%) | B ("B" is defined as 80%< substrate protein remaining %≤ 100%) | A ("A" is defined as 0% ≤ substrate protein remaining % ≤ 80%) |
| O=C1CCN(N2C(=O)c3ccc(CN4CCN(c5ccccc5Br)CC4)cc3C2=O)C(=O)N1 [GT-06727, 5-((4-(2-bromophenyl)piperazin-1-yl)methyl)-2-(2,4-dioxotetrahydropyrimidin-1(2H)-yl)isoindoline-1,3-dione] | A ("A" is defined as 0% ≤ substrate protein remaining % ≤ 80%) | B ("B" is defined as 80%< substrate protein remaining %≤ 100%) | B ("B" is defined as 80%< substrate protein remaining %≤ 100%) | A ("A" is defined as 0% ≤ substrate protein remaining % ≤ 80%) | B ("B" is defined as 80%< substrate protein remaining %≤ 100%) | A ("A" is defined as 0% ≤ substrate protein remaining % ≤ 80%) |
| COc1ccc(N2CCN(Cc3ccc4c(c3)C(=O)N(N3CCC(=O)NC3=O)C4=O)CC2)cc1 [GT-06728, 2-(2,4-dioxotetrahydropyrimidin-1(2H)-yl)-5-((4-(4-methoxyphenyl)piperazin-1-yl)methyl)isoindoline-1,3-dione] | A ("A" is defined as 0% ≤ substrate protein remaining % ≤ 80%) | B ("B" is defined as 80%< substrate protein remaining %≤ 100%) | B ("B" is defined as 80%< substrate protein remaining %≤ 100%) | A ("A" is defined as 0% ≤ substrate protein remaining % ≤ 80%) | B ("B" is defined as 80%< substrate protein remaining %≤ 100%) | A ("A" is defined as 0% ≤ substrate protein remaining % ≤ 80%) |
| COc1ccc(N2CCN(Cc3ccc4c(c3)CN(N3CCC(=O)NC3=O)C4=O)CC2)cc1 [GT-06767, 1-(5-((4-(4-methoxyphenyl)piperazin-1-yl)methyl)-1-oxoisoindolin-2-yl)dihydropyrimidine-2,4(1H,3H)-dione] | A ("A" is defined as 0% ≤ substrate protein remaining % ≤ 80%) | A ("A" is defined as 0% ≤ substrate protein remaining % ≤ 80%) | A ("A" is defined as 0% ≤ substrate protein remaining % ≤ 80%) | A ("A" is defined as 0% ≤ substrate protein remaining % ≤ 80%) | A ("A" is defined as 0% ≤ substrate protein remaining % ≤ 80%) | A ("A" is defined as 0% ≤ substrate protein remaining % ≤ 80%) |
| O=C1CCN(N2Cc3cc(CN4CCN(c5ccc(Br)cc5)CC4)ccc3C2=O)C(=O)N1 [GT-06768, 1-(5-((4-(4-bromophenyl)piperazin-1-yl)methyl)-1-oxoisoindolin-2-yl)dihydropyrimidine-2,4(1H,3H)-dione] | B ("B" is defined as 80%< substrate protein remaining %≤ 100%) | A ("A" is defined as 0% ≤ substrate protein remaining % ≤ 80%) | A ("A" is defined as 0% ≤ substrate protein remaining % ≤ 80%) | A ("A" is defined as 0% ≤ substrate protein remaining % ≤ 80%) | B ("B" is defined as 80%< substrate protein remaining %≤ 100%) | A ("A" is defined as 0% ≤ substrate protein remaining % ≤ 80%) |
| Cc1ccccc1N1CCN(Cc2ccc3c(c2)CN(N2CCC(=O)NC2=O)C3=O)CC1 [GT-06769, 1-(1-oxo-5-((4-(o-tolyl)piperazin-1-yl)methyl)isoindolin-2-yl)dihydropyrimidine-2,4(1H,3H)-dione] | A ("A" is defined as 0% ≤ substrate protein remaining % ≤ 80%) | A ("A" is defined as 0% ≤ substrate protein remaining % ≤ 80%) | A ("A" is defined as 0% ≤ substrate protein remaining % ≤ 80%) | A ("A" is defined as 0% ≤ substrate protein remaining % ≤ 80%) | B ("B" is defined as 80%< substrate protein remaining %≤ 100%) | A ("A" is defined as 0% ≤ substrate protein remaining % ≤ 80%) |
| Cc1ccc(N2CCN(Cc3ccc4c(c3)CN(N3CCC(=O)NC3=O)C4=O)CC2)cc1 [GT-06771, 1-(1-oxo-5-((4-(p-tolyl)piperazin-1-yl)methyl)isoindolin-2-yl)dihydropyrimidine-2,4(1H,3H)-dione] | A ("A" is defined as 0% ≤ substrate protein remaining % ≤ 80%) | A ("A" is defined as 0% ≤ substrate protein remaining % ≤ 80%) | A ("A" is defined as 0% ≤ substrate protein remaining % ≤ 80%) | A ("A" is defined as 0% ≤ substrate protein remaining % ≤ 80%) | B ("B" is defined as 80%< substrate protein remaining %≤ 100%) | A ("A" is defined as 0% ≤ substrate protein remaining % ≤ 80%) |
| O=C1CCN(N2Cc3cc(CN4CCN(c5ccc(Cl)cc5Cl)CC4)ccc3C2=O)C(=O)N1 [GT-06772, 1-(5-((4-(2,4-dichlorophenyl)piperazin-1-yl)methyl)-1-oxoisoindolin-2-yl)dihydropyrimidine-2,4(1H,3H)-dione] | A ("A" is defined as 0% ≤ substrate protein remaining % ≤ 80%) | A ("A" is defined as 0% ≤ substrate protein remaining % ≤ 80%) | A ("A" is defined as 0% ≤ substrate protein remaining % ≤ 80%) | A ("A" is defined as 0% ≤ substrate protein remaining % ≤ 80%) | B ("B" is defined as 80%< substrate protein remaining %≤ 100%) | A ("A" is defined as 0% ≤ substrate protein remaining % ≤ 80%) |
| O=C1CCN(N2Cc3cc(CN4CCN(c5c(Cl)cccc5Cl)CC4)ccc3C2=O)C(=O)N1 [GT-06774, 1-(5-((4-(2,6-dichlorophenyl)piperazin-1-yl)methyl)-1-oxoisoindolin-2-yl)dihydropyrimidine-2,4(1H,3H)-dione] | A ("A" is defined as 0% ≤ substrate protein remaining % ≤ 80%) | A ("A" is defined as 0% ≤ substrate protein remaining % ≤ 80%) | B ("B" is defined as 80%< substrate protein remaining %≤ 100%) | A ("A" is defined as 0% ≤ substrate protein remaining % ≤ 80%) | B ("B" is defined as 80%< substrate protein remaining %≤ 100%) | A ("A" is defined as 0% ≤ substrate protein remaining % ≤ 80%) |
| O=C1CCN(N2Cc3cc(CN4CCN(c5ccc(Cl)c(Cl)c5)CC4)ccc3C2=O)C(=O)N1 [GT-06775, 1-(5-((4-(3,4-dichlorophenyl)piperazin-1-yl)methyl)-1-oxoisoindolin-2-yl)dihydropyrimidine-2,4(1H,3H)-dione] | A ("A" is defined as 0% ≤ substrate protein remaining % ≤ 80%) | A ("A" is defined as 0% ≤ substrate protein remaining % ≤ 80%) | B ("B" is defined as 80%< substrate protein remaining %≤ 100%) | A ("A" is defined as 0% ≤ substrate protein remaining % ≤ 80%) | B ("B" is defined as 80%< substrate protein remaining %≤ 100%) | A ("A" is defined as 0% ≤ substrate protein remaining % ≤ 80%) |
| O=C1CCN(N2Cc3cc(CN4CCN(c5ccc(F)cc5F)CC4)ccc3C2=O)C(=O)N1 [GT-06778, 1-(5-((4-(2,4-difluorophenyl)piperazin-1-yl)methyl)-1-oxoisoindolin-2-yl)dihydropyrimidine-2,4(1H,3H)-dione] | B ("B" is defined as 80%< substrate protein remaining %≤ 100%) | A ("A" is defined as 0% ≤ substrate protein remaining % ≤ 80%) | B ("B" is defined as 80%< substrate protein remaining %≤ 100%) | A ("A" is defined as 0% ≤ substrate protein remaining % ≤ 80%) | B ("B" is defined as 80%< substrate protein remaining %≤ 100%) | B ("B" is defined as 80%< substrate protein remaining %≤ 100%) |
